# Reference: patent publication EP2229935A1, “Peptide derivatives or pharmaceutically acceptable salts thereof, method for producing the same, use of said derivatives and pharmaceutical composition” (Nebolsin, Vladimir Evgenievich, priority 1997, dated 1999)
# “And” between values parts separate entries of the source, which are not always exact repeats. Identical values can stand only once. Marks after values point to notes of the source that are not given here.
# Tests used:
# [1] = system: Wistar rats; experiment: Non-infectious pulmonary granulomatosis model (aerosol Sephadex A-25); settings: intragastral 50 mg/kg once daily
# Procedure: Antiinflammatory and immunomodulating effect of the compound III with intragastral administration was studied on the non-infectious pulmonary granulomatosis model.
# 20 female 4 months old Wistar rats weighing 200-220 g were used in exepriment.
# Sephadex A-25 at a dose 5 mg per 1 kg of body mass, as administered to rats under ether anesthesia using an original dosing device for inhalation administering dry powders manufactured at the Scientific-Research Institute for Medical Instrument-Making. […] Compound III was administered intragastrally using a gastric probe at a dose 50 mg per 1 kg of body mass and immediately after that, single aerosol administration of Sephadex A-25 was performed according to the earlier described technique. Then compound III was administered intragastrally once daily for 6 days at a dose 50 mg/kg of body mass in the form of water solution. Rats were examined by day 7 after commencement of administering compound III and Sephadex A-25.
# Bronchoalveolar lavage was obtained under Hexenal anesthesia. Cytosis, i.e. absolute number of cells in 1 ml was determined in the bronchoalveolar lavage fluid. Endopulmonal cytogram (in percent) was calculated in the smears stained according to Romanovsky-Gimza. […] Histological examination of lungs stained with hematoxylin and eosine was performed. Volume density of alveolitis and emphysema was determined using the point count method.
# [2] = system: white mongrel male rats; experiment: Carrageenan paw edema, oral administration (series I); type: in vivo
# Procedure: Experiment was carried out on white mongrel male rats weighing 280-300 g. Carrageenan-induced edema was caused according to the method of Winter et al. [[inter et al. In: De Rosa M., Giroud J.P., Willoughby D.A. Studies of the mediators of the acute inflammatory reponse induced in rats in different sites by carrageenan and turpentine. […] Paw volume measurement was done using a plethysmograph (Ugo Basile) 1, 3 and 4 hours after carrageenan administration. Inhibition of inflammatory reaction expressed in percent, was calculated according to the formula: 100-[(R-L(exper.))/(L):(R-L(control))/(L)x100](%) [formula] where R - the right paw volume, L - the left paw volume.
# Series I of experiment. […] The reference drug Naproxene was once administered at a dose 20 µg/kg 1 hour before edema induction. Each group included 10 animals.
# [3] = system: P-450 and B5 cytochromes; experiment: Hepatic content of P-450 and B5 cytochromes (microsomal liver fraction); type: in vivo, guinea pigs; settings: guinea pig liver microsomes; administered three times 72, 48 and 24 hours before
# Procedure: Change in hepatic monooxygenase system was studied on mongrel male guinea pigs with initial mass 250-300 g; each group included 12 animals. […]. The content of P-450 and […] cytochromes was measured according to the published method [Omura T., Scato R. The monooxide binding pigment of liver microsomes. 11. Solubilization, purification and properties. J. Chem. (1964), Vol. 239, pp. 2379-2385] in microsomal liver fraction, isolated using differential centrifugation method [Ahokas J., Pelkonen O., Karkin N. Charcaterisation of BP-hydroxylase of Trout-liver. Cancer Res. (1977), Vol. 37, pp. 3737-3743]. The priority method {Izotov M.V., Scherbakov V.M., Devichensky V.M. et al. The method of determining the content of P-450 cytochrome isoenzymes in liver microsomes. The inventor's certificate No 1,488,738. B.I. (1989), No 3.-6.06.09, ICI, 01. - No 33/15, No 33/48]. Microsomal protein content was determined using the modified Lowry method [Hartree E. Determination of protein: a modification of the Lowry method, that gives a linear photometric responces. Ann. Biochem. (1972), Vol. 48, pp. 422-427].
# [4] = system: Wistar male rats; experiment: Blood glucose level in rats with streptozotocine diabetes; type: in vivo; settings: for Blood glucose level: Initial level: intragastral four days
# Procedure: Experiments were carried out on Wistar male rats weighing 250-300 g. Experimental diabetes was induced with single intravenous injection of streptozotocine (the Synthez cooperative enterprise at the IMBG of the Academy of Sciences of Ukraine) at a dose 42 mg/kg to rats which were preliminarily fasting for 24 hours with access to food immediately following injection. Rats were selected for experiment 2 weeks after diabetes induction with glycemia 120-180 mg/dl. Each group included 12 animals.
# The compounds were intragastrally administered to intact animals and to rats with streptozotocine diabetes for four days at daily doses 50 µg/kg and 500 µg/kg in water solution at a rate of 1 ml per 200 g of body mass. Intact animals were given the compounds III and XLIV, and rats with induced diabetes were given the compound XLIV. Check blood glucose level determination was done at the day of experiment, then animals were administered the test compounds and were deprived of food. The control animals received a respective water volume. Effect was estimated by change in blood glucose level in 2 and 5 hours. Then animals received forage and 24 hours after the last drug administration blood was again sampled for examination. 0.1 ml of blood were collected from the tail vein. Glucose level was determined using the o-toluidine method.
# Glucose level was calculated in mg/dl using standard glucose solutions. Then the degree of change in glucose level in relation to the initial level was determined for each animal with its expression in percent from the initial level. Final calculation was performed for each group of animals. Each group included 10 animals.
# [5] = system: hepatic P-450 cytochrome system; experiment: Hexenal sleep duration in guinea pigs; type: in vivo; settings: oral 3 days, 50 µg/kg, control 24.76 ± 3.23
# Procedure: Change in Hexenal sleep (HS) duration is the in vivo measurable index of hepatic P-450 cytochrome system condition.
# Studies were carried out on male mice of the lines BALB/c*h75, C57B1/6, CBA, DBA/2, first generation CBF1 and BDF1 hybrides, with initial mass 18-20 g, each group including 10 mice; and on mongrel male guinea pigs with initial mass 250-300 g, each group including 24 animals. All the test compounds (from II to LII) were administered orally in drinking water and for three days at doses 50 and 500 µg/kg. Hexenal hydrochloride at a dose […] of animal mass was administered 24 hours after the last drug administration, except for line BALB/c*h75 mice, which were administered Hexenal at a dose 60 µg/kg at the same terms, and guinea pigs for which Hexenal dose was 30 µg/kg. HS duration was determined in minutes.
# [6] = system: encephalomyocarditis virus; experiment: Protection of mice against encephalomyocarditis virus infection; type: in vivo; settings: 100 LD50 virus, once intraperitoneally 24 hours after infection, 30 µg/kg
# Procedure: Studies ere carried out on mongrel mice of both sexes with initial body mass 10-11 g. The control and experimental groups included 30 animals each. Compound XLIV and the reference drug interferon inducer Ridostine were administered once intraperitoneally 24 hours after infection of mice with encephalomyocarditis virus at doses 30 µg/kg and 5.0 mg/kg, respectively. Encephalomyocarditis virus was administered at a dose 100 LD50. Antiviral activity was determined by change in mean lifetime (MLT) of mice and by the degree of protection against lethal viral infection.
# [7] = system: mongrel male rats; experiment: Hypolipidemic activity: experimental hyperlipidemia (atherogenic load); settings: atherogenic diet, oral last four days, 50 µg/kg;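 also: serum drawn 18 h after the final dose from rats deprived of food over that interval, groups of 10 animals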
# Procedure: Hypolipidemic activity of the compounds of general formula (I) was studied on the model of experimental hyperlipidemia [Arichi H., Kumura H.O. Effects of stibens compounds of roots of polygonum cuspidatium on the lipid metabolism. […] Each group of animals included 10 rats. […] Blood samples were taken for analysis 18 hours after the last administration of the test substances during which period food was taken away from rats.
# The following parameters were determined: total cholesterol (total CS); high density lipoprotein cholesterol (HDL-CS); low density lipoprotein cholesterol and very low density lipoprotein cholesterol (LDL-CS and VLDL-CS); triglycerides (TG). Blood serum CS level was determined according to the Ilk method [Biochemical examination in the clinic. […] HDL-CS level was measured in supernatant following heparine-manganese precipitation of LDL+VLDL [Titov V.N., Brener E.D., Khaltaiev N.G., Zadoya A.A., Tvorogova M.G. A method and diagnostic significance of cholesterol level study in α-lipoproteins. […] LDL-CS level determination was carried out by calculation according to the formula presented in the work Friedwald W.T. [Friedwald W.T., Levy K.J., Leus R. Fat transport in lipoproteins: an integrated approach to mechanism and disorders.
# To assess the effect of the test compounds on the ratio of atherogenic and antiatherogenic blood serum lipoproteins, cholesterol index (Kcs) was calculated according to the formula presented in the work [Klimov A.N., Nikulcheva N.G. Lipoproteins, dylipoproteinemias and atherosclerosis.
# Blood serum TG level was determined using the conventional method [Friedwald W.T., Levy R.I., Fredrickson D.S. Estimation of concentration of low-density lipoprotein cholesterol in plasma, without use of preparative ultracentrifuge.
# [8] = Wistar rats, day 7 after aerosol Sephadex A-25
# [9] = intragastral four times 50 µg/kg
compound,measurement,setting,value
"O=C(O)CCCC(=O)NCCc1c[nH]cn1 [compound III, N-GLUTARYLHISTAMINE]",Volume density in percent: Alveolitis,[1]; [8],3.8±0.1% and 3.8 ± 1.0%
same,Volume density in percent: Emphysema,[1]; [8],11.2±3.2%
same,Cytosis (absolute number of cells in 1 ml),"[1]; bronchoalveolar lavage, day 7",0.169 ± 0.054
same,Endopulmonary cytogram in percent: Lymphocytes,"[1]; bronchoalveolar lavage, day 7",7.6 ± 1.5%
same,Endopulmonary cytogram in percent: Macrophages,"[1]; bronchoalveolar lavage, day 7",75.2 ± 4.5%
same,Endopulmonary cytogram in percent: Neutrophils,"[1]; bronchoalveolar lavage, day 7",16.8 ± 2.6%
same,Volume density of lymphoid follicles in percent,"[1]; lymphoid tissue associated with bronchi, day 7",34.7 ± 10.3%
same,Inflammation inhibition (%),[2]; [9],30%
same,Volume increment,[2]; [9],0.49 ± 0.07
same,Volume of paws (conditional units) left,[2]; [9],1.23 ± 0.41 conditional units
same,Volume of paws (conditional units) Right,"[2]; intragastral four times 50 µg/kg 72, 48, 24 and 1 hour before",1.72 ± 0.27 conditional units
same,B5 /P-450,[3],0.97*
same,B5 cytochrome nM/mg of protein,[3],1.00 ± 0.03 nM/mg of protein
same,P-450B cytochromes nM/mg of protein,[3],0.72 ± 0.02 nM/mg of protein
same,P-450B/p-450L,[3],2.32**
same,"Blood glucose level in 2 hours, percent from the initial level",[4]; 50 µg/kg,65.4 ± 4.3%
same,"Blood glucose level in 5 hours, percent from the initial level",[4]; 50 µg/kg,43.9 ± 4.9%
same,"Blood glucose level in 24 hours, percent from the initial level",[4]; 50 µg/kg,83.7 ± 6.6%
same,Blood glucose level: mg/dl in 2 hours,[4]; 50 µg/kg,94.4 ± 5.4 mg/dL
same,Blood glucose level: mg/dl in 5 hours,[4]; 50 µg/kg,64.1 ± 5.0 mg/dL
same,Blood glucose level: mg/dl in 24 hours,[4]; 50 µg/kg,122.2 ± 9.2 mg/dL
same,"Blood glucose level in 2 hours, percent from the initial level",[4]; 500 µg/kg,67.6 ± 3.6%
same,"Blood glucose level in 5 hours, percent from the initial level",[4]; 500 µg/kg,44.9 ± 4.5%
same,"Blood glucose level in 24 hours, percent from the initial level",[4]; 500 µg/kg,98.9 ± 10.2%
same,Blood glucose level: mg/dl in 2 hours,[4]; 500 µg/kg,98.8 ± 5.6 mg/dL
same,Blood glucose level: mg/dl in 5 hours,[4]; 500 µg/kg,65.1 ± 1.1 mg/dL
same,Blood glucose level: mg/dl in 24 hours,[4]; 500 µg/kg,143.4 ± 10.9 mg/dL
same,Blood glucose level: Initial level,[4]; 50 µg/kg,146.9 ± 8.2 mg/dL
same,Blood glucose level: Initial level,[4]; 500 µg/kg,145.2 ± 10.6 mg/dL
γ-L-glutamylhistamine [compound XLIV],Hexenal sleep duration (minutes),[5],13.48 ± 1.02* minutes
same,"MLT, days",[6],12.5* days
same,"Protection degree, percent",[6],17.0%
same,"Survival rate, percent",[6],30.3* percent
same,HDL-CS,[7]; blood,"47,3±1,1***^A"
same,LDL-CS+ VLDL-CS,[7]; blood,"37,4±1,1***^A"
same,Total CS,[7]; blood,"84,7±3,0**^A"
same,Triglycerides,[7]; blood,"85,0±6,3***^A"
same,Kcs,[7]; cholesterol index,"0,79±0,02***^A"
